The text below walks through data of ChEMBL document CHEMBL1143278, “3-Aminoxypropionate-based linker system for cyclization activation in prodrug design” (Bioorg Med Chem Lett, 2009).

By half-life is commonly meant the time in which the quantity being followed falls by half.

Data set [1] is described as follows: Stability assessed as cyclization activation in phosphate buffer at pH 7.4 by HPLC. Format: physicochemical.
A short description of data set [2]: Stability assessed as cyclization activation in phosphate buffer at pH 6.0 by HPLC. Format: physicochemical.
Data set [3] in a line: Stability in phosphate buffer at pH 7.4 in absence of alpha-chymotrypsin. Format: ADME.
Data set [4] is described as follows: Stability assessed as formation of ((2R,3S,5R)-5-(5-fluoro-2,4-dioxo-3,4-dihydropyrimidin-1(2H)-yl)-3-hydroxytetrahydrofuran-2-yl)methyl 3-(aminooxy)-2,2-dimethylpropanoate in phosphate buffer at pH 7.4 in presence of alpha-chymotrypsin. Format: ADME.

Turning to `Cl.NOCCC(=O)OC[C@H]1O[C@@H](n2cc(F)c(=O)[nH]c2=O)C[C@@H]1O`, the half-life in data set [1] was 68.6 min; in data set [2], 1370 min.
For the molecule `CC(C)(CONC(=O)[C@H](Cc1ccccc1)NC(=O)OCc1ccccc1)C(=O)OC[C@H]1O[C@@H](n2cc(F)c(=O)[nH]c2=O)C[C@@H]1O`, the Stability result in data set [3] was “Stable”. In addition, the t1/2 in data set [4] is listed as 36.5 min.
Take `CC(C)(CON)C(=O)OC[C@H]1O[C@@H](n2cc(F)c(=O)[nH]c2=O)C[C@@H]1O.Cl`: the half-life was 43.3 min in data set [1] and 1400 min in data set [2].
